For this assay, the target named is OTU domain-containing protein 3 (Homo sapiens) (UniProt Q5T2D3). Nature of the assay: Validation of screening hits, potency titration, in vitro enzymatic, OTU domain-containing protein 3 DUB inhibitors (AID 1645868). As to conditions: purified OTUD3, ubiquitin-rhodamine cleavage fluorescence, 2 h.

Structures are written as SMILES. Activity calls are given as the source filed them.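 The calls were made as follows: active = maximal percent inhibition of the deubiquitinase OTUD3 of at least 30% across the tested doses; inactive = the rest.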

Sequence of OTU domain-containing protein 3 (Homo sapiens) (Q5T2D3 whole entry, looked up, the tested form may be a part): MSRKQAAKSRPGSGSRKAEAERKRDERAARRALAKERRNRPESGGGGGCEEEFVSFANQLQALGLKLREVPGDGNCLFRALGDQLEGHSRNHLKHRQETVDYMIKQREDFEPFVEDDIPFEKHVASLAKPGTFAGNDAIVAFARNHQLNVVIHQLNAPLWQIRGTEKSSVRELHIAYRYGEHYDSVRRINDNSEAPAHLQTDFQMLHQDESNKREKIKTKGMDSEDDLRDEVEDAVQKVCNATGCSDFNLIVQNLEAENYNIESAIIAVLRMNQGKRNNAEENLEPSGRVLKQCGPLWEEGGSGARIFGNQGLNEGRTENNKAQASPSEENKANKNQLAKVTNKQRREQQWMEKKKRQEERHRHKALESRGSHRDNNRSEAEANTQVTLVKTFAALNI

On to `O=c1[nH]c(C2CCN(S(=O)(=O)c3ccc(S(=O)(=O)NC4CCCCC4)cc3)CC2)nc2c1nnn2Cc1c(F)cccc1Cl`, for which the 50% inhibitory concentration (IC50) was 27.9 µM. As for `O=[N+]([O-])c1ccc(N2CCN(c3ncnc4c3[nH]c3ccc(F)cc34)CC2)cc1`, the IC50 was 2.45 µM. As for `CCC(C)NC(=O)Cn1c(=O)n(-c2ccccc2)c(=O)c2ccc(C(=O)NCc3ccco3)cc21` (stereo unspecified), the figure is 35.4 µM; as for `CC(C)(C)C(=O)[C@@H]1[C@@H](C(=O)c2ccc3c(c2)OCO3)[C@@]2(C(=O)Nc3ccccc32)[C@H]2c3ccccc3C=CN12`, > 50 µM (inactive).

Take `CCS(=O)(=O)N1CCc2cc(C(=O)Nc3ccc4c(c3)OCCO4)ccc21`: the IC50 is > 50 µM (inactive).

Regarding `CCOc1ccc(C2=NCCNC3=C2C(c2ccccc2)N(c2ccccc2)C3=O)cc1` (stereo unspecified), the IC50 was > 50 µM (inactive).

Take `Cc1ccc(-n2cc3c(N4CCCC(C(=O)NCC5CCCCC5)C4)ncnc3n2)cc1` (stereo unspecified): the IC50 was > 50 µM (inactive). For `Cc1cc(N2CCN(c3ncccn3)CC2)nc2ccc(NC(=O)c3ccncc3)cc12`, the IC50 is 31 µM. Turning to `Cc1ccc(-n2c(-c3ccccc3)cn3c4c(=O)[nH]c(=O)n(C)c4nc23)cc1Cl`, the IC50 was > 50 µM (inactive).

Regarding `COc1cnc(-c2ccccn2)nc1Sc1ccc(C)cc1`, the IC50 was > 50 µM (inactive). Take `Cc1ccccc1NC(=O)Cn1cc(-c2nc(C3CC3)no2)ccc1=O`: the IC50 was > 50 µM (inactive). In the case of `COc1ccc(C(=O)Nc2ccc(S(=O)(=O)N3CCCCC3)cc2)cc1`, the IC50 was > 50 µM (inactive).

In the case of `COc1ccc(NS(=O)(=O)c2cc(NC(=O)CCc3nc4ccccc4s3)ccc2C)cc1`, the half-maximal inhibitory concentration (IC50) is 31.7 µM.

On to `CC1(C)C[C@@H](O)[C@]2(C)CC[C@]3(C)C(=CCC4[C@@]5(C)CC[C@H](O)[C@](C)(CO)[C@@H]5CC[C@]43C)[C@@H]2C1` (stereo partly specified), for which the IC50 is > 50 µM (inactive). The same measure for `CC(C)Oc1ccc(C(=O)Nc2cccc(S(=O)(=O)N3CCCC3)c2)cc1`: > 50 µM (inactive); for `COc1cccc(N2CCN(C(=O)C3CCN(c4nc(NC(C)=O)ns4)CC3)CC2)c1`: > 50 µM (inactive).

Regarding `COc1ccc(C(=O)NCC(c2ccc3c(c2)CCCN3C)N2CCCC2)cc1` (stereo unspecified), the IC50 is > 50 µM (inactive). The same measure for `Cc1ccccc1NC(=O)c1cc(S(=O)(=O)N2CCCCCC2)ccc1Cl`: 29.7 µM.

In the case of `Cc1cccc(C(=O)N2CCc3cc(-c4nc(NC(=O)CN5CCc6ccccc6C5)sc4C)ccc32)c1`, the IC50 was > 50 µM (inactive). On to `Cc1nn(-c2cccc(F)c2)c2c1c(C)c(CCC(=O)NCc1ccccn1)c(=O)n2C`, for which the IC50 was > 50 µM (inactive). Consider `Cc1ccc(CN2CCCn3nc(C(=O)NCc4ccc(F)cc4)cc3C2=O)cc1`, for which the IC50 was > 50 µM (inactive). As for `CCN(c1ccc(NC(=O)CSc2nnc(-c3ccccc3)n2-c2ccc(OC)c(OC)c2)cc1)C(C)C`, the IC50 is 19.7 µM.

Regarding `COc1ccccc1CNC(=O)c1c(O)c2cnn(-c3cccc(C)c3)c2[nH]c1=O`, the IC50 is > 50 µM (inactive).

As for `COc1cccc(NC(=O)c2nnn(-c3ccccc3)n2)c1`, the IC50 is > 50 µM (inactive). The same measure for `COc1cc(NC(=O)Cn2c(=O)n(-c3ccc(CC(=O)NC4CCCC4)cc3)c(=O)c3ccccc32)cc(OC)c1`: > 50 µM (inactive); for `Cc1cccc(NC(=O)Cn2cnc(-c3noc(-c4ccccc4)n3)c2)c1C`: 2.42 µM. The same measure for `Cc1cc(=O)n2c3c(c4c(cc13)c(CO)cc(=O)n4C)OC2`: > 50 µM (inactive).

As to `N#Cc1ccc(NC(=O)Nc2cccn(Cc3c(F)cccc3Cl)c2=O)cc1`, the IC50 was > 50 µM (inactive). The same measure for `COc1cccc(Cn2nc3n(CC(C)C)c(=O)c4ccc(C(=O)NCC(C)C)cc4n3c2=O)c1`: 10.2 µM; for `CCCCCCCc1cc(O)cc(O)c1`: > 50 µM (inactive).

Regarding `COC1=CC(=O)c2c(O)c(C)c(CC(C)=O)c(O)c2C1=O`, the IC50 is > 50 µM (inactive). As for `O=C(Nc1ccc2c(c1)N(C(=O)C1CCCC1)CC2)c1c(F)cccc1F`, the figure is > 50 µM (inactive); as for `Cc1cc(NC(=O)c2cc(-c3cccnc3)n[nH]2)ccc1Br`, 12.2 µM. As for `CC1OC1C(=O)[C@]1(O)[C@H](C)[C@@H](O)[C@@]23O[C@@]2([C@H](O)c2c(O)cccc2C3=O)[C@H]1O` (stereo partly specified), the IC50 is > 50 µM (inactive). Consider `Cn1nc(-c2ccccc2)c(COC(=O)c2ccc([N+](=O)[O-])cc2)c1Cl`, for which the IC50 was > 50 µM (inactive). `CCCC(=O)Nc1nc2ccc(CCC(=O)NCc3ccc(F)cc3)cc2s1`: the IC50 was 35.6 µM. Turning to `Cc1cccc(NC(=O)c2noc3c2CCc2sccc2-3)n1`, the IC50 was > 50 µM (inactive). On to `CCCCn1c(=O)c(CCC(=O)OCC(=O)Nc2ccc3c(c2)OCCO3)nc2ccccc21`, for which the IC50 is > 50 µM (inactive). Regarding `Cc1c(OCC(=O)Nc2nc3ccccc3[nH]2)ccc2c3c(c(=O)oc12)CCC3`, the IC50 is 2.66 µM. For `Cc1ccc(C)c(S(=O)(=O)N2CCC3(CC2)NC(=O)c2ccccc2N3)c1`, the IC50 is > 50 µM (inactive). For the compound `CC(=O)Nc1ccc([C@H]2OCC(=O)N(C3CCOCC3)[C@@H]2CO)cc1`, the IC50 was > 50 µM (inactive). As for `O=C(NCc1ccccc1Cl)C1CCCN(c2nc3ccsc3c(=O)s2)C1` (stereo unspecified), the figure is > 50 µM (inactive); as for `Cc1c(-c2ccc(C#N)cc2)oc2ccc(Br)cc2c1=O`, > 50 µM (inactive). `COc1ccccc1NC(=O)CSC1=NC2(CCCCC2)Nc2ccccc21`: the IC50 is > 50 µM (inactive). Regarding `O=C(c1ccco1)N1CCC2(CC1)CC1(CO2)Nc2ccccc2-n2cccc21` (stereo unspecified), the IC50 was > 50 µM (inactive).

For `NC(=O)CCC(=O)N[C@H]1C[C@H]2CN(Cc3ccccc3)c3ccccc3CN2C1`, the IC50 is > 50 µM (inactive). As for `Cn1c(=O)cc(SCC(=O)NC2CCN(Cc3ccccc3)CC2)c2ccc(Cl)cc21`, the IC50 is > 50 µM (inactive).

On to `Cc1ccc(CNC(=O)Cn2cnc3c(cnn3-c3cccc(Cl)c3)c2=O)cc1`, for which the IC50 is > 50 µM (inactive). Turning to `Cc1ccc(Cn2nnc(-c3ccccc3Cl)n2)cc1`, the IC50 is > 50 µM (inactive).

Consider `O=C(Nc1cc(Cl)ccc1-n1cncn1)c1ccc(S(=O)(=O)N2CCCC2)cc1`, for which the IC50 was > 50 µM (inactive). The same measure for `Cn1c2ccccc2c(=O)c2c(=O)n(Cc3ccccc3)c(-c3ccco3)nc21`: 1.55 µM; for `CCCCN(C)C(=O)c1cc2c(=O)n3cccc(C)c3nc2n1Cc1ccccc1`: > 50 µM (inactive); for `Cc1ccc(NC(=O)c2nnn(-c3ccccc3)n2)cc1F`: > 50 µM (inactive). The same measure for `CC1CC[C@]2(NC1)O[C@H]1C[C@H]3[C@@H]4CC[C@H]5C[C@@H](O[C@@H]6O[C@H](CO)[C@H](O[C@@H]7O[C@H](CO)[C@@H](O)[C@H](O[C@@H]8OC[C@@H](O)[C@H](O)[C@H]8O)[C@H]7O[C@@H]7O[C@H](CO)[C@@H](O)[C@H](O)[C@H]7O)[C@H](O)[C@H]6O)CC[C@]5(C)[C@H]4CC[C@]3(C)[C@H]1[C@@H]2C` (stereo partly specified): > 50 µM (inactive); for `CSc1ncc(C(=O)NC(C)c2ccccc2)c(-c2ccccc2)n1` (stereo unspecified): 22.1 µM; for `COc1cc(OC)cc(C(=O)Nc2cnc(-c3ccccc3)nc2)c1`: > 50 µM (inactive).

Usually IC50 stands for the concentration that inhibits the measured activity by half.

The values above are taken from PubChem BioAssay AID1645868 (Buhrlage Lab, Dana-Farber Cancer Institute and Novartis …, 2021).
